Source: publication doi:10.1101/2025.02.07.637162, “Lactate dehydrogenase is the Achilles’ heel of Lyme disease bacterium Borreliella burgdorferi” (bioRxiv, 2025)

Columns and labels:
[1] = target: T1, BbLDH (BB_0087, lactate dehydrogenase) (Borreliella burgdorferi, UniProt O51114); assay: X-ray crystal structure, […] Å; allosteric activation of enzyme activity; type: binding
T1 construct: gene ldh; full-length, 316 residues

[2] = target: T1, BbLDH (BB_0087, lactate dehydrogenase); assay: X-ray crystal structure, […] Å; type: binding

T1 sequence (O51114 whole entry): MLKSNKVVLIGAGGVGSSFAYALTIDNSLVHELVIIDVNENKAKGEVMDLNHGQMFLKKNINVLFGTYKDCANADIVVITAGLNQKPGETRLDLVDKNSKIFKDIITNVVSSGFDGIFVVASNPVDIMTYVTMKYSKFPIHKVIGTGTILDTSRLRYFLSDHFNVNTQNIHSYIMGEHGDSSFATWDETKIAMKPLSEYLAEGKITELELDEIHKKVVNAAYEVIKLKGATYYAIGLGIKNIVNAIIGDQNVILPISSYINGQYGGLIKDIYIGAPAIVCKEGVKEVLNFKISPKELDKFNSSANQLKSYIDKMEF

## O=P(O)(O)OC[C@H]1OC(O)(COP(=O)(O)O)[C@@H](O)[C@@H]1O (some centres unmarked) [FBP, fructose 1,6-bisphosphate]
[1]
  X-ray crystal structure, 2.1 Å; allosteric activation of enzyme activity: Salt bridge and hydrogen bonding residues that interact with FBP in BbLDH (chain A and C, pink and yellow)

## NC(=O)C1=CN([C@@H]2O[C@H](COP(=O)(O)OP(=O)(O)OC[C@H]3O[C@@H](n4cnc5c(N)ncnc54)[C@H](O)[C@@H]3O)[C@@H](O)[C@H]2O)C=CC1 [NADH]
[2]
  X-ray crystal structure, 2.1 Å: Both structures were determined in the presence of NADH and the pyruvate analog oxamate (OXA)
